Like-named read-outs stand apart in the source and are kept apart here. Values belong to the compound of their own block, whether it stands above or below them.
Assays:
[1] = assay type: in vitro ADME, human
Procedure: Sci. 75, 1094 (1986). […] All formulations were studied in triplicate.
Example 39 was repeated with 1% Diclofenac gel, with and without compound of Example 21, was evaluated. The aliquots were analyzed by U.V. Spectrophotometry and average cumulative amount of drug permeating over 24 hours was calculated.

[2] = patch, 5% ES, control without enhancer; receptor ethanol/saline (3:7)
Procedure: The compounds of the present invention were tested in vitro as penetration enhancers according to the procedure outlined below. The penetration enhancers were formulated with pharmacologically active agents in creams and patches.
Human stratum corneum was isolated from full thickness human skin as described by Bronaugh et. al., J. Pharm. […] The skin was placed between the donor and the receptor compartments of diffusion cells in such a way that the dermal side of the skin faced the receptor compartment which was filled with normal saline (pH 7.2-7.4) or appropriate releasing media. The stratum corneum was equilibrated at 37° C. overnight prior to the application of a topical formulation or a transdermal patch. All formulations were studied in triplicate.
(§4) The entire contents of the receptor compartment were removed at specific time intervals for duration of the study period and replenished with fresh saline.
Procedure of Example 39 was repeated with the following 17B-Estradiol (ES) patch formulations. Normal saline in the receptor compartment was replaced by ethanol/saline (3:7).

[3] = Penetration of hydrocortisone through hairless mouse skin in diffusion cells; assay type: in vitro ADME, hairless mice; details: for % Penetration (hydrocortisone): 1% hydrocortisone, 2% 1,2-propanediol, 2% enhancer, average for two cells; for penetration enhancing properties as compared to the control (hydrocortisone): in words
Procedure: The compounds of Examples 8 and 13 were tested as penetration enhancing agents according to the procedure below:
(§1) The skin was incubated at 37° C. and the ambient humidity.
(§2) 100 microliters of the solution containing 1 mg of test drug was applied to the epidermal surface within the donor compartment. The entire contents from the 4.2 ml receptor compartment bathing the corium were removed for analysis at 5 or 6, 12 and 24 hours intervals. In each case, the receptor compartment was refilled with 4.2 ml of fresh normal saline.
(§3) The aliquots removed after 5 or 6, 12 and 24 hours were analyzed by HPLC using a C-18 reverse phase column.

[4] = Penetration of 5-fluorouracil through hairless mouse skin in diffusion cells; assay type: in vitro ADME, hairless mice; details: for % Penetration (5-Fluorouracil): 1% 5-Fluorouracil, 2% enhancer
Procedure: as §1, §2, §3
The compounds of Examples 8 was tested as penetration enhancers according to the procedure outlined under Example 49.

[5] = Examples 51-62 repeated with other penetration enhancers; comparison as penetration enhancing agents; details: in words
Hygroscopicity = assay type: physicochemical
Procedure: 34 g (127 mmoles) 1-(2-Hyrdoxyethyl)-2-undecyl-2-imidazoline was dissolved in 300 ml of hexane and 8.5 g […] of acetic acid in 50 ml of hexane were reacted. The precipitate was filtered and then dried at 40°-50° C. under high vacuum for 5 hours. Yield 40.7 g (97.8%).

[6] = patch, 3% PG, control without enhancer, receptor ethanol/saline (3:7)
Procedure: The skin was placed between the donor and the receptor compartments of diffusion cells in such a way that the dermal side of the skin faced the receptor compartment which was filled with normal saline (pH 7.2-7.4) or appropriate releasing media. The stratum corneum was equilibrated at 37° C. overnight prior to the application of a topical formulation or a transdermal patch. All formulations were studied in triplicate.
as §4
Procedure of Example 39 was repeated with the following two sets of Progesterone (PG) patch formulations. Normal saline in the receptor compartment was replaced with ethanol/saline (3:7).

Average Cumulative Amount of Diclofenac in Micrograms permeating over 24 hours [1]: 106.7 ± 33.5 Micrograms
Compound: O=C(O)Cc1ccccc1Nc1c(Cl)cccc1Cl [Diclofenac, reference compound]

Average Cumulative Amount of ES in Micrograms Permeating over 51 Hours [2]: 30.90 ± 1.00 Micrograms
Compound: C[C@]12CC[C@@H]3c4ccc(O)cc4CC[C@H]3[C@@H]1CC[C@@H]2O [ES, 17B-Estradiol]

Average Cumulative Amount of PG in Micrograms Permeating over 51 Hours ([6]; SET A): 176.3 ± 92.0 Micrograms | Average Cumulative Amount of PG in Micrograms Permeating over 51 Hours ([6]; SET B): 25 ± 17 Micrograms
Compound: CC(=O)[C@H]1CC[C@H]2[C@@H]3CCC4=CC(=O)CC[C@]4(C)[C@H]3CC[C@]12C [PG, Progesterone]

The remaining lines, values behind:

Compound: CCCCCCCCCCCC1=NC(C)(C)CO1 [Example 8, 4,4-dimethyl-2-undecyl-2-oxazoline]
% Penetration (hydrocortisone) ([3]; 6 hrs): 16.1% | % Penetration (hydrocortisone) ([3]; 12 hrs): 28.2% | % Penetration (hydrocortisone) ([3]; 24 hrs): 49.1% | penetration enhancing properties as compared to the control (hydrocortisone) [3]: far superior penetration enhancing properties | % Penetration (5-Fluorouracil) ([4]; 6 hrs): 59.2% | % Penetration (5-Fluorouracil) ([4]; 12 hrs): 60.3% | % Penetration (5-Fluorouracil) ([4]; 24 hrs): 60.5% | penetration enhancement compared to the control (5-Fluorouracil) ([4]; in words): superior to the control

Compound: CCCCCCCCCCCC1=NC(C)(CO)CO1 (centres unmarked) [Example 13, 4-hydroxymethyl-4-methyl-2-undecyl-2-oxazoline]
% Penetration (hydrocortisone) ([3]; 6 hrs): 8.8% | % Penetration (hydrocortisone) ([3]; 12 hrs): 17.3% | % Penetration (hydrocortisone) ([3]; 24 hrs): 34.9% | penetration enhancing properties as compared to the control (hydrocortisone) [3]: far superior penetration enhancing properties

Compound: CCCCCCCCCCC1COC(C(F)(F)F)=N1 (centres unmarked) [Example 21, 4-Decyl-2-trifluoromethyl-2-oxazoline]
permeation of Diclofenac through human skin compared to control [1]: increases the permeation | penetration enhancing, compared with the prior art and the other examples [5]: significantly superior penetration enhancing agents

Compound: CCCCCCCCCCCC1=NCCN1CCO [Example 37, 1-(2-Hyrdoxyethyl)-2-undecyl-2-imidazoline acetate]
behaviour upon absorbing moisture (Hygroscopicity): hydrated to a gel upon absorbing moisture | hygroscopicity (hydroscopic [sic]) (Hygroscopicity): hydroscopic

From patent US5030629A, “Compositions and method comprising heterocyclic compounds containing two heteroatoms as membrane penetration enhancers” (priority 1989, dated 1991)
